“And” between values parts separate entries of the source, which are not always exact repeats. Equal entries are not always repeated. Where two headings read alike, the source gives them in different places.
Columns and labels:
ME180 cells = assay: toxicity (XTT) in transmission inhibition assay; settings: for TOXICITY VALUES (XTT), single samples: samples 1-3; for TC50 (concentration at which 50% of cells are eliminated): interpolation from % CC
Excerpt: (§1) ME180 cells, a cervical epithelial cell line, were obtained from the American Type Culture Collection. These cells were thawed from liquid nitrogen and grown in RPMI 1640 medium supplemented with 10t fetal bovine serum, glutamine and antibiotics. The cells were adherent and were trypsinized (0.5% trypsin in HBSS) to remove them from the flask for passaging and use in assays. For use in the microtiter transmission inhibition assay, ME180 cells were trypsinized, washed and seeded in 96-well flat bottom microtiter plates (COSTAR) at a density of 5×10^3 cells per well. The cells were incubated at 37° C. for 24 hours prior to the tart of the assay. H9 cells chronically infected with he SK1 isolate of HIV-1 were treated with 200 μg/ml mitomycin C for 60 minutes at 37° C. After treatment the cells were washed three times with tissue culture medium. The chronically infected lymphocytes were added to each well at a density of 2×10^4 cells per well. The concentration of mitomycin C used in the treatment of the lymphocytes was chosen to allow lymphocyte survival for the period of time required to transmit virus to the uninfected ME180 cells, but to die prior to the time of assay so as not to contribute to the p24 signal used as the endpoint (see below). In the transmission assay the lytic peptides D4E1 and D2A21, with and without 150 μg/ml pig mucin, were added prior to the addition of chronically infected cells or were mixed with the chronically infected cells prior to their addition to the monolayer of ME180 cells. Mucin was included because it is an abundant constituent of the normal vaginal secretions of a human being, thus any chemotherapeutic agent targeting HIV should be active in its presence if it is to have clinical value. […] The lymphocytes and peptide were co-cultured with the ME180 cells for 6 hours and then removed by washing the ME180 monolayer four times with PBS. The plate was then incubated at 37° C. for six days. Medium was removed and changed every 48 hours during the incubation stage. No further peptide was added after the initial dose. At six days post-co-cultivation, the supernatant was removed from the wells and evaluated for the quantity of p24 antigen by ELISA. The ELISA was performed according to the manufacturer's recommendations. The amount of virus production in wells treated with various concentrations of the peptides was evaluated with appropriate cell and virus controls. Data are reported as a percent of virus control at each drug concentration. Linear regression analysis was used to calculate the […] and IC95 concentrations of the transmission inhibitor. […] TI represents the toxicity index, which is the ratio of the TC50/IC50, and is an indication of the relative concentrations window that exists between efficacy and toxicity.

SK1 isolate of HIV-1 = settings: for p24 VALUES, single samples: samples 1-3; for IC50 (inhibition of cell-cell transmission): linear regression
Excerpt: as §1

[1] = 0.32 μg/ml, with 150 μg/ml pig mucin
[2] = 1 μg/ml, with 150 μg/ml pig mucin
[3] = 3.2 μg/ml, with 150 μg/ml pig mucin
[4] = 10 μg/ml, with 150 μg/ml pig mucin
[5] = 32 μg/ml, with 150 μg/ml pig mucin
[6] = 100 μg/ml, with 150 μg/ml pig mucin

Dextran
% CC (XTT, percent of cell control) (ME180 cells; 0.32 μg/ml, no mucin): 90.1% | TOXICITY VALUES (XTT), MEAN (ME180 cells; 0.32 μg/ml, no mucin): 0.458 O.D. @ 450/650 nm | TOXICITY VALUES (XTT), single samples (ME180 cells; 0.32 μg/ml, no mucin): 0.462 O.D. @ 450/650 nm and 0.463 O.D. @ 450/650 nm and 0.488 O.D. @ 450/650 nm | % CC (XTT, percent of cell control) (ME180 cells; [1]): 90.1% | TOXICITY VALUES (XTT), MEAN (ME180 cells; [1]): 0.458 O.D. @ 450/650 nm | TOXICITY VALUES (XTT), single samples (ME180 cells; [1]): 0.462 O.D. @ 450/650 nm and 0.463 O.D. @ 450/650 nm and 0.448 O.D. @ 450/650 nm | % CC (XTT, percent of cell control) (ME180 cells; 1 μg/ml, no mucin): 88.1% | TOXICITY VALUES (XTT), MEAN (ME180 cells; 1 μg/ml, no mucin): 0.447 O.D. @ 450/650 nm | TOXICITY VALUES (XTT), single samples (ME180 cells; 1 μg/ml, no mucin): 0.425 O.D. @ 450/650 nm and 0.457 O.D. @ 450/650 nm and 0.450 O.D. @ 450/650 nm | % CC (XTT, percent of cell control) (ME180 cells; [2]): 88.1% | TOXICITY VALUES (XTT), MEAN (ME180 cells; [2]): 0.447 O.D. @ 450/650 nm | TOXICITY VALUES (XTT), single samples (ME180 cells; [2]): 0.425 O.D. @ 450/650 nm and 0.467 O.D. @ 450/650 nm and 0.450 O.D. @ 450/650 nm | % CC (XTT, percent of cell control) (ME180 cells; 3.2 μg/ml, no mucin): 91.1% | TOXICITY VALUES (XTT), MEAN (ME180 cells; 3.2 μg/ml, no mucin): 0.463 O.D. @ 450/650 nm | TOXICITY VALUES (XTT), single samples (ME180 cells; 3.2 μg/ml, no mucin): 0.477 O.D. @ 450/650 nm and 0.453 O.D. @ 450/650 nm and 0.459 O.D. @ 450/650 nm | % CC (XTT, percent of cell control) (ME180 cells; [3]): 91.1% | TOXICITY VALUES (XTT), MEAN (ME180 cells; [3]): 0.463 O.D. @ 450/650 nm | TOXICITY VALUES (XTT), single samples (ME180 cells; [3]): 0.477 O.D. @ 450/650 nm and 0.453 O.D. @ 450/650 nm and 0.459 O.D. @ 450/650 nm | % CC (XTT, percent of cell control) (ME180 cells; 10 μg/ml, no mucin): 92.0% | TOXICITY VALUES (XTT), MEAN (ME180 cells; 10 μg/ml, no mucin): 0.467 O.D. @ 450/650 nm | TOXICITY VALUES (XTT), single samples (ME180 cells; 10 μg/ml, no mucin): 0.468 O.D. @ 450/650 nm and 0.467 O.D. @ 450/650 nm | % CC (XTT, percent of cell control) (ME180 cells; [4]): 92.0% | TOXICITY VALUES (XTT), MEAN (ME180 cells; [4]): 0.467 O.D. @ 450/650 nm | TOXICITY VALUES (XTT), single samples (ME180 cells; [4]): 0.468 O.D. @ 450/650 nm and 0.467 O.D. @ 450/650 nm | % CC (XTT, percent of cell control) (ME180 cells; 32 μg/ml, no mucin): 91.7% | TOXICITY VALUES (XTT), MEAN (ME180 cells; 32 μg/ml, no mucin): 0.466 O.D. @ 450/650 nm | TOXICITY VALUES (XTT), single samples (ME180 cells; 32 μg/ml, no mucin): 0.457 O.D. @ 450/650 nm and 0.438 O.D. @ 450/650 nm and 0.493 O.D. @ 450/650 nm | % CC (XTT, percent of cell control) (ME180 cells; [5]): 91.7% | TOXICITY VALUES (XTT), MEAN (ME180 cells; [5]): 0.466 O.D. @ 450/650 nm | TOXICITY VALUES (XTT), single samples (ME180 cells; [5]): 0.467 O.D. @ 450/650 nm and 0.438 O.D. @ 450/650 nm and 0.493 O.D. @ 450/650 nm | % CC (XTT, percent of cell control) (ME180 cells; 100 μg/ml, no mucin): 97.8% | TOXICITY VALUES (XTT), MEAN (ME180 cells; 100 μg/ml, no mucin): 0.497 O.D. @ 450/650 nm | TOXICITY VALUES (XTT), single samples (ME180 cells; 100 μg/ml, no mucin): 0.481 O.D. @ 450/650 nm and 0.491 O.D. @ 450/650 nm and 0.519 O.D. @ 450/650 nm | % CC (XTT, percent of cell control) (ME180 cells; [6]): 97.8% | TOXICITY VALUES (XTT), MEAN (ME180 cells; [6]): 0.497 O.D. @ 450/650 nm | TOXICITY VALUES (XTT), single samples (ME180 cells; [6]): 0.481 O.D. @ 450/650 nm and 0.491 O.D. @ 450/650 nm and 0.519 O.D. @ 450/650 nm | TC50 (concentration at which 50% of cells are eliminated) (ME180 cells; no mucin): TC50 = 100 μg/ml | TC50 (concentration at which 50% of cells are eliminated) (ME180 cells; with 150 μg/ml pig mucin): TC50 = 100 μg/ml | % VC (p24, percent of virus control) (SK1 isolate of HIV-1; 0.32 μg/ml, no mucin): 93.4% | p24 VALUES, MEAN (SK1 isolate of HIV-1; 0.32 μg/ml, no mucin): 51.0 µg/mL | p24 VALUES, single samples (SK1 isolate of HIV-1; 0.32 μg/ml, no mucin): 52.2 µg/mL and 52.5 µg/mL and 48.2 µg/mL | % VC (p24, percent of virus control) (SK1 isolate of HIV-1; [1]): 90.6% | p24 VALUES, MEAN (SK1 isolate of HIV-1; [1]): 56.2 µg/mL | p24 VALUES, single samples (SK1 isolate of HIV-1; [1]): 56.2 µg/mL and 53.5 µg/mL and 58.9 µg/mL | % VC (p24, percent of virus control) (SK1 isolate of HIV-1; 1 μg/ml, no mucin): 100.2% | p24 VALUES, MEAN (SK1 isolate of HIV-1; 1 μg/ml, no mucin): 54.7 µg/mL | p24 VALUES, single samples (SK1 isolate of HIV-1; 1 μg/ml, no mucin): 53.5 µg/mL and 57.0 µg/mL | % VC (p24, percent of virus control) (SK1 isolate of HIV-1; [2]): 86.72% | p24 VALUES, MEAN (SK1 isolate of HIV-1; [2]): 53.1 µg/mL | p24 VALUES, single samples (SK1 isolate of HIV-1; [2]): 51.0 µg/mL and 57.5 µg/mL and 50.9 µg/mL | % VC (p24, percent of virus control) (SK1 isolate of HIV-1; 3.2 μg/ml, no mucin): 91.4% | p24 VALUES, MEAN (SK1 isolate of HIV-1; 3.2 μg/ml, no mucin): 49.9 µg/mL | p24 VALUES, single samples (SK1 isolate of HIV-1; 3.2 μg/ml, no mucin): 50.3 µg/mL and 47.2 µg/mL and 52.2 µg/mL | % VC (p24, percent of virus control) (SK1 isolate of HIV-1; [3]): 88.2% | p24 VALUES, MEAN (SK1 isolate of HIV-1; [3]): 54.7 µg/mL | p24 VALUES, single samples (SK1 isolate of HIV-1; [3]): 52.1 µg/mL and 54.7 µg/mL and 57.3 µg/mL | % VC (p24, percent of virus control) (SK1 isolate of HIV-1; 10 μg/ml, no mucin): 84.1% | p24 VALUES, MEAN (SK1 isolate of HIV-1; 10 μg/ml, no mucin): 45.9 µg/mL | p24 VALUES, single samples (SK1 isolate of HIV-1; 10 μg/ml, no mucin): 45.3 µg/mL and 45.7 µg/mL and 46.6 µg/mL | % VC (p24, percent of virus control) (SK1 isolate of HIV-1; [4]): 92.6% | p24 VALUES, MEAN (SK1 isolate of HIV-1; [4]): 57.5 µg/mL | p24 VALUES, single samples (SK1 isolate of HIV-1; [4]): 53.2 µg/mL and 58.1 µg/mL and 61.1 µg/mL | % VC (p24, percent of virus control) (SK1 isolate of HIV-1; 32 μg/ml, no mucin): 96.0% | p24 VALUES, MEAN (SK1 isolate of HIV-1; 32 μg/ml, no mucin): 52.4 µg/mL | p24 VALUES, single samples (SK1 isolate of HIV-1; 32 μg/ml, no mucin): 51.9 µg/mL and 53.2 µg/mL and 52.0 µg/mL | % VC (p24, percent of virus control) (SK1 isolate of HIV-1; [5]): 102.7% | p24 VALUES, MEAN (SK1 isolate of HIV-1; [5]): 63.7 µg/mL | p24 VALUES, single samples (SK1 isolate of HIV-1; [5]): 65.5 µg/mL and 60.5 µg/mL and 65.1 µg/mL | % VC (p24, percent of virus control) (SK1 isolate of HIV-1; 100 μg/ml, no mucin): 94.5% | p24 VALUES, MEAN (SK1 isolate of HIV-1; 100 μg/ml, no mucin): 51.6 µg/mL | p24 VALUES, single samples (SK1 isolate of HIV-1; 100 μg/ml, no mucin): 52.6 µg/mL and 52.0 µg/mL and 50.1 µg/mL | % VC (p24, percent of virus control) (SK1 isolate of HIV-1; [6]): 104.2% | p24 VALUES, MEAN (SK1 isolate of HIV-1; [6]): 64.6 µg/mL | p24 VALUES, single samples (SK1 isolate of HIV-1; [6]): 63.7 µg/mL and 59.6 µg/mL and 70.6 µg/mL | IC50 (inhibition of cell-cell transmission) (SK1 isolate of HIV-1; no mucin): IC50 = 100 μg/ml | IC50 (inhibition of cell-cell transmission) (SK1 isolate of HIV-1; with 150 μg/ml pig mucin): IC50 = 100 μg/ml

Reference: patent US6514692B2, “Method for treatment of immunodeficiency virus infection” (priority 1996, dated 2003)
